According to US20260256909A1, “COMBINATION OF A BTN3A ACTIVATING ANTIBODY, A BCL2 INHIBITOR AND HYPOMETHYLATING AGENT FOR USE IN TREATING CANCER” (Imcheck Therapeutics, priority 2022, published 2026):

Assays:
Format in all cases: cell-based, human
[1] = system: MOLM14 cells; assay: Killing of MOLM14 AML cells in co-culture with HD-PBMC (flow cytometry); settings: ICT01 0.1 μg/mL, HD-PBMC ratio 5:1, 2 days
Description: KG1a or MOLM14 AML cell lines were co-cultured with HD-PBMC at ratio 5:1 in presence of ICT01 or isotype control (0.1 μg/mL). After 6 hrs, indicated concentrations of ABT-737, Navitoclax or MIK665 were added to the culture. A) Relative numbers of live KG1a cells (Mean±SEM) after 2 days of co-culture with HD-PBMC in presence of ICT01 (black) or its isotype control hIgG1S (light grey) and treatment with indicated concentration of ABT-737. B) Relative numbers of live KG1a cells (Mean±SEM) after 2 days of co-culture with HD-PBMC in presence of ICT01 (black) or its isotype control hIgG1S (light grey) and treatment with indicated concentration of Navitoclax. C) Relative numbers of live MOLM14 cells (Mean±SEM) after 2 days of co-culture with HD-PBMC in presence of ICT01 (black) or its isotype control hIgG1S (light grey) and treatment with indicated concentration of MIK665. N=6 HD, each dot represents one healthy donor, * p<0.05, 2 way ANOVA.
The effect of the three Bcl-2 family member inhibitors ABT-737, Navitoclax and MIK665, on ICT01-induced killing of AML cell lines by Vγ9Vδ2 T cells was assessed by measuring the relative number of surviving target cells in a HD-PBMC-AML cells co-culture using flow cytometry.
For assays using ABT-737 or Navitoclax, KG1a cells were used. […] Therefore, MOLM14 cells, which express MCL-1, were used in killing assays assessing the activity of ICT01 combined with MIK665.

[2] = system: JVM-2 (Chronic B-cell leukemia); assay: Killing of JVM-2 cells in co-culture with HD-PBMC (flow cytometry); settings: co-culture with HD-PBMC ratio 5:1, 48 hrs
Description: (§1) Raji cells (Burkitt Lymphoma) or JVM2 cells (Chronic-B cell Leukemia) were co-cultured with HD-PBMC at ratio 5:1 in presence of ICT01 or isotype control (0.1 μg/mL or 1 μg/mL). After 6 hrs, indicated concentrations of Venetoclax, 5-Azacytidine or the combination were added to the culture. Relative numbers of live Raji (A) or JVM2 (B) were monitored after 48 hrs by flow cytometry. […] N=6, each dot represents one healthy donor, * p<0.05, ** p<0.01, 2 way ANOVA.
(§2) The effect of Venetoclax and 5-Azacytidine on BTN3A activating antibody-induced killing of Burkitt Lymphoma and Chronic-B-cell leukemia cell lines by Vγ9Vδ2 T cells was assessed by measuring the relative number of surviving target cells in a HD-PBMC-Target cell co-culture using flow cytometry.

[3] = system: Raji (Burkitts Lymphoma); assay: Killing of Raji cells in co-culture with HD-PBMC (flow cytometry); settings: co-culture with HD-PBMC ratio 5:1, 48 hrs
Description: as §1, §2

ICT01: humanized BTN3A activating antibody of mAb 7.2, heavy chain SEQ ID NO: 4, light chain SEQ ID NO: 6, silent IgG1 L247F/L248E/P350S
MOLM14 cell death as compared to control condition [1]: ~ 56% | decrease of live JVM-2 cells as compared to hIgG1S alone condition (control) [2]: ~ 16% | decrease of live Raji cells as compared to hIgG1S alone condition (control) [3]: ~ 22%
